The test system of test [1] is isolierte Aortaringe des Kaninchens. The test can be described thus: Inhibition of KCl-induced contraction of isolated rabbit aortic rings. The format is cell-based. The conditions noted are these: KCl 1 x 10^-2 mol/l; mean ± standard deviation; Nimodipin value under a comparable set-up; read-out: EC50-Wert, Inhibition der KCl-induzierten Kontraktion der Kaninchen-Aortenringe. An excerpt: Im Allgemeinen heben Kalziumkanalantagonisten die KCl-induzierte Kontraktion isolierter Aortaringe des Kaninchens auf (vgl. Arzneim.-Forsch./Drug Res. 1992, 42, 795-797; J. Pharmacol. Exp.Ther. 1953, 108,129-143.).
Kaninchen beiderlei Geschlechts werden schmerzlos betäubt und entblutet. Der thorakale Teil der Aorta descendens wird ohne Verletzung der Endothelschicht freipräpariert und auf ca. 2 mm breite spiraienförmige Streifensegmente geschnitten und einzeln unter einer Anfangsbelastung von ca. 2 g in 10ml Carbogen-begaste Krebs-Bicarbonat-Pufferlösung (37°C) verbracht.
Kontraktionen werden isometrisch erfaßt und ausgewertet.
Die funktionelle Integrität des Endotheliums wird durch Noradrenalin (1 x 10^-8 mol/l) induzierte Kontraktionen und durch Acetylcholin (1 x 10^-8 - 1 x 10^-5 mol/l) hervorgerufene Relaxation getestet. Nach einer Auswasch- und Ruhephase sowie Erreichen eines stabilen Basalwertes (ca. nach 2 Stunden) wird mit Zugabe von 0,25 ml KCl, bei einer Endkonzenration von 1 x 10^-2 mol/l eine submaximale (60-80%) Kontraktion der Aortastreifen ausgelöst. Die Testsubstanz wird während der Plateauphase der KCl induzierten Kontraktion in die Bäder appliziert (in steigender Dosierungen: 1 x 10^-12 - 1 x 10^-5 mol/l Endkonzentration) und die Wirkung auf den kontrahierten Gefäßstreifen gemessen. […]

The subject of test [2] is Rattenmodell der permanenten fokalen cerebralen Ischämie (MCA-O). As to the kind of experiment: Neuroprotection in the rat model of permanent focal cerebral ischaemia (MCA-O). In kind it is in vivo, Ratte. The conditions noted are these: 7 days survival, Placebo 146,69 ± 6,77. An excerpt: Unter allgemeiner Narkose (Isofluran) wird in der Mitte zwischen Auge und Ohr ein Hautschnitt gelegt und unter Durchtrennung der darunterliegenden Muskelpartien ein Zugang zum Schädel im Bereich des Foramen ovale geschaffen. Etwa 1 mm rostrodorsal dieser Öffnung wird der Schädelkalotte durchgebohrt, die darunterliegenden Hirnhäute eröffnet, und durch Elektrokoagulation die Arteria cerebri media und deren Nebenäste permanent verschlossen. Daraufhin wird die Kaumuskulatur in ihre ursprüngliche Lage gebracht. Die Muskel- und Hautwunde wird chirurgisch verschlossen und versorgt. Nach dem Aufwachen aus der Narkose werden die Tiere in ihren Heimkäfig zurückgesetzt. Im Verlauf der folgenden Stunden entwickelt sich im Versorgungsgebiet der Arteria cerebri media ein Infarkt, dessen Ausdehnung histologisch quantifiziert wird.
Nach 7 Tagen Überlebenszeit werden die Tiere getötet, das Gehirn entnommen und in auf -30°C gekühltem 2-Methylbutan eingefroren. Mit Hilfe eines Kryostatmikrotoms werden 20 µm dicke Schnitte in 500 µm Abstand im Infarktbereich hergestellt. Nach der Cresylechtviolett-Färbung der fixierten Gehirnschnitte ist das Infarktgebiet vom nicht betroffenen Gewebe deutlich zu unterscheiden. […]

Test [3] has as its target T1, 5-HT1A Rezeptor gekoppelte Adenylatcyclase-Aktivität (Rattus norvegicus, UniProt P19327).
T1 construct: an hippocampalen Zellmembranen der Ratte; from tissue; host or cells: rat hippocampus membranes
T1 sequence (P19327 1-422): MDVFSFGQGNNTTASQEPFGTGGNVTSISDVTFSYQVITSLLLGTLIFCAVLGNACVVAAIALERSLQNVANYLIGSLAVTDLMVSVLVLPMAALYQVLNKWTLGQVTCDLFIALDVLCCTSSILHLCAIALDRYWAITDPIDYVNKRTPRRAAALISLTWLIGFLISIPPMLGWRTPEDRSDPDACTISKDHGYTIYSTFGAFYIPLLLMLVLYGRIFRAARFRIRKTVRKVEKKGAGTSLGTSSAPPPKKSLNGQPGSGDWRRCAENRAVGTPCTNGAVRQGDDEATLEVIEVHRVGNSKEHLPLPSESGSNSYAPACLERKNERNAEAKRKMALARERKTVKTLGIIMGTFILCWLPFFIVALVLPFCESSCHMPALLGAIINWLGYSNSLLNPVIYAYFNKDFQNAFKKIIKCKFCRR
The test can be described thus: Inhibition of forskolin-stimulated adenylate cyclase activity on hippocampal cell membranes. As to conditions: Hippocampusmembranen der Ratte; 0,01 mM Forskolin; read-out: IC50-Wert, Inhibition der Forskolin-stimulierten Adenylatcyclase Aktivität. In kind it is biochemical. How it is done: 5-HT1A Rezeptor gekoppelte Adenylatcyclase-Aktivität wurde an hippocampalen Zellmembranen der Ratte mit der Methodik von De Vivo und Maayani (J. Pharmacol. Exp. Ther. 1986, 238, 248-253.) gemessen.
Der Hippocampus wurde in 25 Volumen 0,3 M Sucroselösung (ergänzt mit 1mM EGTA, 5 mM EDTA, 5 mM Dithiothreitol und 20 mM Tris-HCl; pH 7,4 bei 25°C) in einem motorgetriebenen Potter-Elvehjem-Homogenisator zerkleinert. Das Homogenat wurde 10 min lang bei 1.000 g abzentrifugiert, danach der Überstand 10 min bei 39.000 g nochmals zentrifugiert. Das Pellet wurde im Homogenisationspuffer aufgenommen. Aliquots mit einem Proteingehalt von 1 mg/ml (gemessen nach Bradford Anal. Biochem. 1976, 72, 248-254.) wurden bei -140°C bis zur weiteren Verarbeitung aufbewahrt. Vor dem Assay wurde das aufgetaute Homogenat mit dem Potter-Elvehjem-Homogenisator nochmals homogenisiert. 50 µl Homogenat (mit ca. 50 µg Proteingehalt) wurden der vorgewärmten (5 min bei 30°C) Inkubationsmischung (100 mM NaCl, 2mM Magnesium Acetate 0,2 mM ATP, 1 mM cAMP, 0,01 mM GTP, 0,01 mM Forskolin, 80 mM Tris-HCl, 5 mM Creatine Phosphate, 0,8 U/µl Creatine Phosphokinase, 0,01 mM IBMX, 1 - 2 µCi α-[^32P]ATP) zupipettiert und so die Inkubation (10 min bei 30°C) gestartet.
Zur Messung der Adenylatcyclase-Aktivität wurde die Menge des gebildeten [^32P]cAMP nach Salomon (Adv. Cyclic Nucleotide Res. 1979, 10, 35-55.) bestimmt.

SMILES strings stand for the structures.

What is called EC50 is the midpoint of the concentration-response curve. For `COCCOC(=O)C1=C(C)NC(C)=C(C(=O)OC(C)C)C1c1cccc([N+](=O)[O-])c1` (racemic) [Nimodipin, (RS)-1,4-Dihydro-2,6-dimethyl-4-(3-nitrophenyl)-3,5-pyridindicarbonsäure-isopropylester-2-methoxyethylester], the EC50 in test [1] lay within 2.9 to 4.3 nM. Further, the “Infarktvolumen im cerebralen Cortex (Mittelwert ± S.E.M; mm^3)” value in test [2] (0,003 mg/kg/Std i.v. infusion over 4 h directly after occlusion) is reported as 120,87 ± 8,79 mm^3.

The term IC50 denotes the concentration that inhibits the measured activity by half. With `O=C1c2ccccc2S(=O)(=O)N1CCCCNCC1CCc2ccccc2O1` (single isomer, unassigned) [5-HT1A-Agonist*], in test [2] (i.v. infusion over 4 h directly after occlusion), the “Infarktvolumen im cerebralen Cortex (Mittelwert ± S.E.M; mm^3)” value was 104,79 ± 7,63 mm^3. Moreover, the IC50 in test [3] amounted to 1.6 nM.

Turning to `COC(=O)C1=C(C)NC(C)=C(C(=O)OC)C1c1ccccc1[N+](=O)[O-]` [Nifedipin], the EC50 in test [1] amounted to 3.58 nM.

Source of the values: patent EP1067965B1, “PHARMACEUTICAL COMPOSITION FOR TREATING CEREBRAL APOPLEXY AND CRANIOCEREBRAL TRAUMA” (Bayer HealthCare AG, priority 1997, dated 1999).
